Measured values from ChEMBL document CHEMBL4145521, “Regioselective synthesis of 3,4-diaryl-5-unsubstituted isoxazoles, analogues of natural cytostatic combretastatin A4” (Eur J Med Chem, 2018).

What was measured:
Type in all cases: functional
[1] = system: HOP-62; test: Cytotoxicity against human HOP62 cells assessed as cell growth at 0.01 uM incubated for 48 hrs by sulforhodamine B assay relative to control; conditions: HOP-62, 48 h, read-out: Activity
[2] = system: HOP-92; test: Cytotoxicity against human HOP92 cells assessed as cell growth at 0.01 uM incubated for 48 hrs by sulforhodamine B assay relative to control; conditions: HOP-92, 48 h, read-out: Activity
[3] = system: NCI-H226; test: Cytotoxicity against human NCI-H226 cells assessed as cell growth at 0.01 uM incubated for 48 hrs by sulforhodamine B assay relative to control; conditions: NCI-H226, 48 h, read-out: Activity
[4] = system: SK-MEL-2; test: Cytotoxicity against human SK-MEL-2 cells assessed as cell growth at 0.01 uM incubated for 48 hrs by sulforhodamine B assay relative to control; conditions: SK-MEL-2, 48 h, read-out: Activity
[5] = system: SK-MEL-5; test: Cytotoxicity against human SK-MEL-5 cells assessed as cell growth at 0.01 uM incubated for 48 hrs by sulforhodamine B assay relative to control; conditions: SK-MEL-5, 48 h, read-out: Activity
[6] = system: SF-539; test: Cytotoxicity against human SF539 cells assessed as cell growth at 0.1 uM incubated for 48 hrs by sulforhodamine B assay relative to control; conditions: SF-539, 48 h, read-out: Activity
[7] = system: Malme-3M; test: Cytotoxicity against human MALME-3M cells assessed as cell growth at 0.1 uM incubated for 48 hrs by sulforhodamine B assay relative to control; conditions: read-out: Activity
[8] = system: A498; test: Cytotoxicity against human A498 cells assessed as cell growth at 0.1 uM incubated for 48 hrs by sulforhodamine B assay relative to control; conditions: A498, 48 h, read-out: Activity
[9] = system: PC-3; test: Cytotoxicity against human PC3 cells assessed as cell growth at 0.1 uM incubated for 48 hrs by sulforhodamine B assay relative to control; conditions: PC-3, 48 h, read-out: Activity
[10] = system: BT-549; test: Cytotoxicity against human BT549 cells assessed as cell growth at 0.1 uM incubated for 48 hrs by sulforhodamine B assay relative to control; conditions: BT-549, 48 h, read-out: Activity
[11] = system: SF-295; test: Cytotoxicity against human SF295 cells assessed as cell growth at 1 uM incubated for 48 hrs by sulforhodamine B assay relative to control; conditions: SF-295, 48 h, read-out: Activity
[12] = system: NCI/ADR-RES; test: Cytotoxicity against human NCI/ADR-RES cells assessed as cell growth at 1 uM incubated for 48 hrs by sulforhodamine B assay relative to control; conditions: read-out: Activity
[13] = system: Hs-578T; test: Cytotoxicity against human Hs 578T cells assessed as cell growth at 1 uM incubated for 48 hrs by sulforhodamine B assay relative to control; conditions: read-out: Activity
[14] = system: BT-549; test: Cytotoxicity against human BT549 cells assessed as cell growth at 1 uM incubated for 48 hrs by sulforhodamine B assay relative to control; conditions: BT-549, 48 h, read-out: Activity
[15] = system: HL-60(TB); test: Cytotoxicity against human HL-60(TB) cells assessed as cell growth at 10 uM incubated for 48 hrs by sulforhodamine B assay relative to control; conditions: HL-60, 48 h, read-out: Activity
[16] = system: HOP-92; test: Cytotoxicity against human HOP92 cells assessed as cell growth at 10 uM incubated for 48 hrs by sulforhodamine B assay relative to control; conditions: HOP-92, 48 h, read-out: Activity
[17] = system: M14; test: Cytotoxicity against human M14 cells assessed as cell growth at 10 uM incubated for 48 hrs by sulforhodamine B assay relative to control; conditions: M14, 48 h, read-out: Activity
[18] = system: SK-MEL-28; test: Cytotoxicity against human SK-MEL-28 cells assessed as cell growth at 10 uM incubated for 48 hrs by sulforhodamine B assay relative to control; conditions: SK-MEL-28, 48 h, read-out: Activity
[19] = system: TK-10; test: Cytotoxicity against human TK10 cells assessed as cell growth at 10 uM incubated for 48 hrs by sulforhodamine B assay relative to control; conditions: TK-10, 48 h, read-out: Activity
[20] = system: BT-549; test: Cytotoxicity against human BT549 cells assessed as cell growth at 10 uM incubated for 48 hrs by sulforhodamine B assay relative to control; conditions: BT-549, 48 h, read-out: Activity
[21] = system: SW-620; test: Cytotoxicity against human SW620 cells assessed as cell growth at 100 uM incubated for 48 hrs by sulforhodamine B assay relative to control; conditions: SW-620, 48 h, read-out: Activity
[22] = system: SF-539; test: Cytotoxicity against human SF539 cells assessed as cell growth at 100 uM incubated for 48 hrs by sulforhodamine B assay relative to control; conditions: SF-539, 48 h, read-out: Activity
[23] = system: CAKI-1; test: Cytotoxicity against human Caki1 cells assessed as cell growth at 100 uM incubated for 48 hrs by sulforhodamine B assay relative to control; conditions: CAKI-1, 48 h, read-out: Activity
[24] = system: RXF 393; test: Cytotoxicity against human RXF393 cells assessed as cell growth at 100 uM incubated for 48 hrs by sulforhodamine B assay relative to control; conditions: RXF 393, 48 h, read-out: Activity
[25] = system: TK-10; test: Cytotoxicity against human TK10 cells assessed as cell growth at 100 uM incubated for 48 hrs by sulforhodamine B assay relative to control; conditions: TK-10, 48 h, read-out: Activity
[26] = system: NCI-H226; test: Cytotoxicity against human NCI-H226 cells incubated for 48 hrs by sulforhodamine B assay; conditions: NCI-H226, 48 h
[27] = system: SK-MEL-2; test: Cytotoxicity against human SK-MEL-2 cells incubated for 48 hrs by sulforhodamine B assay; conditions: SK-MEL-2, 48 h
[28] = system: OVCAR-3; test: Cytotoxicity against human OVCAR3 cells incubated for 48 hrs by sulforhodamine B assay; conditions: OVCAR-3, 48 h
[29] = system: OVCAR-4; test: Cytotoxicity against human OVCAR4 cells incubated for 48 hrs by sulforhodamine B assay; conditions: OVCAR-4, 48 h
[30] = system: UO-31; test: Cytotoxicity against human UO31 cells incubated for 48 hrs by sulforhodamine B assay; conditions: UO-31, 48 h
[31] = system: MCF7; test: Cytotoxicity against human MCF7 cells incubated for 48 hrs by sulforhodamine B assay; conditions: MCF7, 48 h
[32] = read-out: LC50 (the source's name)
[33] = read-out: pLC50 (the source's name) (converted)

COc1ccc(-c2nocc2-c2cc(OC)c(OC)c(OC)c2)cc1
growth at 0.01 µM [1]: 85%
growth at 0.01 µM [2]: 98%
growth at 0.01 µM [3]: 100%
growth at 0.01 µM [4]: 99%
growth at 0.01 µM [5]: 100%
growth at 0.1 µM [6]: 65%
growth at 0.1 µM [7]: 55%
growth at 0.1 µM [8]: 29%
growth at 0.1 µM [9]: 40%
growth at 0.1 µM [10]: 56%
growth at 1 µM [11]: 7%
growth at 1 µM [12]: 9%
growth at 1 µM [13]: 31%
growth at 1 µM [14]: 33%
growth at 10 µM [15]: -8%
growth at 10 µM [16]: 49%
growth at 10 µM [17]: 13%
growth at 10 µM [18]: 46%
growth at 10 µM [19]: 18%
growth at 10 µM [20]: 9%
growth at 100 µM [21]: 7%
growth at 100 µM [22]: -15%
growth at 100 µM [23]: 14%
growth at 100 µM [24]: -2%
growth at 100 µM [25]: -10%
GI50 ([26]; read-out: GI50): 15.5 µM
LC50 ([26]; read-out: LC50): > 100 µM
TGI ([26]; read-out: TGI): 58.3 µM
GI50 ([26]; read-out: pGI50 (converted)): 15.5 µM
LC50 ([26]; read-out: pLC50 (converted)): > 100 µM
TGI ([26]; read-out: pTGI (converted)): 58.9 µM
GI50 ([27]; read-out: GI50): 0.0664 µM
CC50 [27, 32]: > 100 µM
TGI ([27]; read-out: TGI): 69.2 µM
GI50 ([27]; read-out: pGI50 (converted)): 0.0661 µM
CC50 [27, 33]: > 100 µM
TGI ([27]; read-out: pTGI (converted)): 69.2 µM
GI50 ([28]; read-out: GI50): 0.0386 µM
LC50 (50% lethal concentration) ([28]; read-out: LC50): > 100 µM
TGI ([28]; read-out: TGI): 1.32 µM
GI50 ([28]; read-out: pGI50 (converted)): 0.0389 µM
LC50 (50% lethal concentration) ([28]; read-out: pLC50 (converted)): > 100 µM
TGI ([28]; read-out: pTGI (converted)): 1.32 µM
GI50 ([29]; read-out: GI50): 0.926 µM
LC50 ([29]; read-out: LC50): > 100 µM
TGI ([29]; read-out: TGI): > 100 µM
GI50 ([29]; read-out: pGI50 (converted)): 0.933 µM
LC50 ([29]; read-out: pLC50 (converted)): > 100 µM
TGI ([29]; read-out: pTGI): > 100 µM
GI50 ([30]; read-out: GI50): 0.545 µM
CC50 [30, 32]: > 100 µM
TGI ([30]; read-out: TGI): 28.7 µM
GI50 ([30]; read-out: pGI50 (converted)): 0.55 µM
CC50 [30, 33]: > 100 µM
TGI ([30]; read-out: pTGI (converted)): 28.8 µM
GI50 ([31]; read-out: GI50): 0.0408 µM
LC50 ([31]; read-out: LC50): > 100 µM
TGI ([31]; read-out: TGI): > 100 µM
GI50 ([31]; read-out: pGI50 (converted)): 0.0407 µM
LC50 ([31]; read-out: pLC50 (converted)): > 100 µM
TGI ([31]; read-out: pTGI): > 100 µM
